21 compounds from patent publication US12162897B2, “1,4-sulfur-bridged polycyclic compounds containing dihydrobenzofuran structure, its preparation method and application thereof” (Chengdu University, priority 2021, dated 2024) can be followed below.

The test system of test [1] is human leukemia cells K562. Put plainly: Cell viability assay, human leukemia cells K562. The following applies: 5000 cells per well, 96-well plate, 48 hours with compound, mean of repeats. It counts as cell-based. The method, then: (§1) Specific experimental operations: 5000 human leukemia cells K562 and human lung cancer cells A549 are seeded into 96-well cell culture plates respectively to grow for 24 hours. Then, a predetermined concentration of the above synthesized compounds are added respectively, wherein the antitumor drug cisplatin is used as a control for 48 hours. The mean 50% inhibitory concentration (IC50) of all compounds is then determined. Each concentration is repeated at least three times, and all experiments are repeated three times, and the average results obtained are shown in Table 1.

Test [2] relates to human lung cancer cells A549. As to the kind of experiment: Cell viability assay, human lung cancer cells A549. The test is classed as cell-based. The following applies: 5000 cells per well, 96-well plate, 48 hours with compound, mean of repeats. The method, then:
as §1

Consider `C[C@@]12S[C@@](c3ccccc3)(NC1=O)[C@]1([N+](=O)[O-])Oc3ccc(Br)cc3[C@H]21` [I-fa], for which the concentration for half-maximal inhibition (IC50) (commonly the concentration that gives 50% inhibition) in test [1] (Homo sapiens, K562, 48 h) turned out to be 30.9 µM; in test [2] (Homo sapiens, A549, 48 h) it was 67.6 µM.
The matching figures for `C[C@@]12S[C@@](c3ccc(Br)cc3)(NC1=O)[C@]1([N+](=O)[O-])Oc3ccccc3[C@H]21` [I-ae]: 54.7 µM and 45.5 µM.
For the compound `COc1ccc2c(c1)O[C@]1([N+](=O)[O-])[C@H]2[C@]2(C)S[C@@]1(c1ccccc1)NC2=O` [I-ja], the half-inhibitory concentration (IC50) came to 2.6 µM in test [1] (Homo sapiens, K562, 48 h) and 4.83 µM in test [2] (Homo sapiens, A549, 48 h).
The matching figures for `C[C@@]12S[C@@](c3ccccc3)(NC1=O)[C@]1([N+](=O)[O-])Oc3ccc([N+](=O)[O-])cc3[C@H]21` [I-ha]: 22.3 µM and 67.3 µM.
As for `C[C@@]12S[C@@](c3ccccc3F)(NC1=O)[C@]1([N+](=O)[O-])Oc3ccccc3[C@H]21` [I-ab], the 50% inhibitory concentration (IC50) in test [1] (Homo sapiens, K562, 48 h) was 52.2 µM; in test [2] (Homo sapiens, A549, 48 h) it was 57 µM.
For the compound `C[C@@]12S[C@@](c3ccc(F)cc3)(NC1=O)[C@]1([N+](=O)[O-])Oc3ccccc3[C@H]21` [I-ac], the 50% inhibitory concentration (IC50) in test [1] (Homo sapiens, K562, 48 h) came out at 74.6 µM; in test [2] (Homo sapiens, A549, 48 h) it was 58.2 µM.
Consider `C[C@@]12S[C@@](c3ccccc3)(NC1=O)[C@]1([N+](=O)[O-])Oc3ccccc3[C@H]21` [I-aa], for which the 50% inhibitory concentration (IC50) turned out to be 12.4 µM in test [1] (Homo sapiens, K562, 48 h) and 28.2 µM in test [2] (Homo sapiens, A549, 48 h).
Regarding `C[C@@]12S[C@@](c3ccccc3)(NC1=O)[C@]1([N+](=O)[O-])Oc3cccc(Cl)c3[C@H]21` [I-da], the concentration for half-maximal inhibition (IC50) in test [1] (Homo sapiens, K562, 48 h) is 10.3 µM; in test [2] (Homo sapiens, A549, 48 h), 34.3 µM.
For `C[C@@]12S[C@@](c3ccc4ccccc4n3)(NC1=O)[C@]1([N+](=O)[O-])Oc3ccccc3[C@H]21` [I-ah] the same measures were 59.4 µM and 20.5 µM.
On to `Cc1ccc2c(c1)O[C@]1([N+](=O)[O-])[C@H]2[C@]2(C)S[C@@]1(c1ccccc1)NC2=O` [I-ia], for which the IC50 in test [1] (Homo sapiens, K562, 48 h) is 14.5 µM; in test [2] (Homo sapiens, A549, 48 h), 33.3 µM.
For `C[C@@]12S[C@@](c3ccccc3)(NC1=O)[C@]1([N+](=O)[O-])Oc3cc(Br)ccc3[C@H]21` [I-ga], the 50% inhibitory concentration (IC50) in test [1] (Homo sapiens, K562, 48 h) was found to be 7.09 µM; in test [2] (Homo sapiens, A549, 48 h), 30.8 µM.
On to `C[C@@]12S[C@@](c3ccc(Cl)cc3)(NC1=O)[C@]1([N+](=O)[O-])Oc3ccccc3[C@H]21` [I-ad], for which the half-inhibitory concentration (IC50) in test [1] (Homo sapiens, K562, 48 h) came out at 50.2 µM; in test [2] (Homo sapiens, A549, 48 h), 40 µM.
Consider `C[C@@]12S[C@@](c3ccccn3)(NC1=O)[C@]1([N+](=O)[O-])Oc3ccccc3[C@H]21` [I-ai], for which the half-inhibitory concentration (IC50) came to 32.3 µM in test [1] (Homo sapiens, K562, 48 h) and 23.9 µM in test [2] (Homo sapiens, A549, 48 h).
On to `C[C@@]12S[C@@](c3ccccc3)(NC1=O)[C@]1([N+](=O)[O-])Oc3ccc(F)cc3[C@H]21` [I-ba], for which the half-maximal inhibitory concentration (IC50) amounted to 13 µM in test [1] (Homo sapiens, K562, 48 h) and 32.6 µM in test [2] (Homo sapiens, A549, 48 h).
As to `C[C@@]12S[C@@](c3ccccc3)(NC1=O)[C@]1([N+](=O)[O-])Oc3c(F)cccc3[C@H]21` [I-ca], the IC50 in test [1] (Homo sapiens, K562, 48 h) was 19 µM; in test [2] (Homo sapiens, A549, 48 h), 57.7 µM.
For `N.N.[Cl][Pt][Cl]` [Cisplatin, cisplatin, reference compound], the IC50 was 20.3 µM in test [1] and 24 µM in test [2].
`C[C@@]12S[C@@](c3ccccc3)(NC1=O)[C@]1([N+](=O)[O-])Oc3ccc(Cl)cc3[C@H]21` [I-ea]: the concentration for half-maximal inhibition (IC50) in test [1] (Homo sapiens, K562, 48 h) was found to be 21.4 µM; in test [2] (Homo sapiens, A549, 48 h) it was 45.3 µM.
For the compound `C[C@@]12S[C@@](c3cccc(Br)c3F)(NC1=O)[C@]1([N+](=O)[O-])Oc3ccccc3[C@H]21` [I-af], the IC50 in test [1] (Homo sapiens, K562, 48 h) is 46.4 µM; in test [2] (Homo sapiens, A549, 48 h), 39.5 µM.
For the compound `C[C@@]12S[C@@](c3cccc(Br)c3F)(NC1=O)[C@]1([N+](=O)[O-])Oc3ccccc3[C@H]21` [I-ag], the figures for the IC50 in test [1] and in test [2] were 30.2 µM and 44.6 µM, respectively.
Turning to `CC(C)(C)c1ccc2c(c1)[C@@H]1[C@]3(C)S[C@@](c4ccccc4)(NC3=O)[C@]1([N+](=O)[O-])O2` [I-ka], the concentration for half-maximal inhibition (IC50) in test [1] (Homo sapiens, K562, 48 h) came out at 29.6 µM; in test [2] (Homo sapiens, A549, 48 h), 33 µM.
Regarding `COc1cc(Br)cc2c1O[C@]1([N+](=O)[O-])[C@H]2[C@]2(C)S[C@@]1(c1ccccc1)NC2=O` [I-la], the IC50 is 3.1 µM in test [1] (Homo sapiens, K562, 48 h) and 15.6 µM in test [2] (Homo sapiens, A549, 48 h).
